From patent US8772248B2, “Drug delivery system” (Keele University, priority 2004, dated 2014) come the findings set out here.

Data set [1] has as its target T1, PepT1 (Oryctolagus cuniculus, UniProt P36836).
T1 construct: expressed in transfected cells
T1 sequence (P36836 1-707): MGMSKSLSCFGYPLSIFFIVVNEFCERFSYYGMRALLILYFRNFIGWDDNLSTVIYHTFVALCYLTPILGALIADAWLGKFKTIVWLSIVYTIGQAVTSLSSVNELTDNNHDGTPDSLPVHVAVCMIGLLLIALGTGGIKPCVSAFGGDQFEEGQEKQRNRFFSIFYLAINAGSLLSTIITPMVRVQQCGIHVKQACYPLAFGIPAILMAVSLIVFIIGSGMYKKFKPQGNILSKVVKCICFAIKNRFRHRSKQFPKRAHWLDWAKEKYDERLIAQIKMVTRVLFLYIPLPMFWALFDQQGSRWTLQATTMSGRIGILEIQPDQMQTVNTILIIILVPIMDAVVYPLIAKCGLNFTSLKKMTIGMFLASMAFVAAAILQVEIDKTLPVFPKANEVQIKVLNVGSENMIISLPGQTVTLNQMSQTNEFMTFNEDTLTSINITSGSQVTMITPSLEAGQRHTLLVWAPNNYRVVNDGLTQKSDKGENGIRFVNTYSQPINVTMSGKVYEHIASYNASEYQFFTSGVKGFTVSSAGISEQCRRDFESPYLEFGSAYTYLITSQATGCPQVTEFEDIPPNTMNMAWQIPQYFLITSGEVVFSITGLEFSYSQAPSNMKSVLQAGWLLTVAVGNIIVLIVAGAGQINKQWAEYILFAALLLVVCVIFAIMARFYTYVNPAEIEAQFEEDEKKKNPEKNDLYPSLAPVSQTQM
Nature of the data set: Efflux / trans-stimulation assay in PepT1-expressing oocytes injected with [3H]-D-Phe-L-Gln. The format is cell-based. As for the experimental part: Efflux experiments were performed as described in Temple et al., J. Biol. Chem., 1998, 273, 20-22. Briefly, PepT1-expressing oocytes were micro-injected with 4.6 nl of [^3H]-D-Phe-L-Gln (17.4 Ci/mmole) and allowed to recover for 15 minutes. 5 oocytes were incubated in […] uptake solution (pH 5.5) containing a potential substrate (i.e. a thiodipeptide-drug analogue conjugate) at 10 mM, with a negative control (i.e. uptake solution pH 5.5) and a positive control (i.e. 20 mM dipeptide Gly-Gln in pH 5.5 uptake solution). After 90 minutes incubation at room temperature, 50 μL of the medium was removed and placed in a scintillation vial for counting. The oocytes were washed sequentially five times in 1 mL of ice-cold uptake medium, then lysed individually with 100 μL 2% (w/v) SDS in vials, and liquid scintillation counted.
Efflux of the radiolabelled dipeptide is a positive indication of active transport via PepT1.
In the assays carried out, the dipeptide Gly-Gln (which is known to be transported by PepT1) caused about 30% of labelled D-Phe-L-Gln to remain in the oocytes. At the same concentration, the test substrates (the conjugates being tested) are assessed as follows:—
<(measureable efflux, but less transport than Gly-Gln control, with ≧50% of D-Phe-L-Gln remaining)
=(efflux similar to the effect of Gly-Gln, i.e. 25-50% of labelled D-Phe-L-Gln remaining)
>(more efflux than Gly-Gln, i.e. <25% of labelled D-Phe-L-Gln remaining)
There are no reports in the literature of thiodipeptides attached to drugs or drug analogues, and therefore no examples of such conjugates being actively transported.

Data set [2] concerns PepT1. The data set is described as follows: In vivo transport across the gut wall, rat jejenum, HPLC analysis. From the text:
(§1) In vivo transport experiments, using the methodology described in Lister et al. (J. Physiol., 1995, 484.1, 173-182), were used to investigate the importance of the thio group in the compounds according to the invention during transport of thiopeptides across the gut wall. […] For the purposes of this experiment, this thiopeptide was not conjugated to a drug analogue molecule. Then, using rat jejenum, they carried out direct measurements of transport of this test thiopeptide across the gut wall. […]

Data set [3] addresses T2, PepT1 (Rattus norvegicus, UniProt P51574).
T2 construct: using rat jejenum; from tissue; host or cells: rat jejunum
T2 sequence (P51574 1-710): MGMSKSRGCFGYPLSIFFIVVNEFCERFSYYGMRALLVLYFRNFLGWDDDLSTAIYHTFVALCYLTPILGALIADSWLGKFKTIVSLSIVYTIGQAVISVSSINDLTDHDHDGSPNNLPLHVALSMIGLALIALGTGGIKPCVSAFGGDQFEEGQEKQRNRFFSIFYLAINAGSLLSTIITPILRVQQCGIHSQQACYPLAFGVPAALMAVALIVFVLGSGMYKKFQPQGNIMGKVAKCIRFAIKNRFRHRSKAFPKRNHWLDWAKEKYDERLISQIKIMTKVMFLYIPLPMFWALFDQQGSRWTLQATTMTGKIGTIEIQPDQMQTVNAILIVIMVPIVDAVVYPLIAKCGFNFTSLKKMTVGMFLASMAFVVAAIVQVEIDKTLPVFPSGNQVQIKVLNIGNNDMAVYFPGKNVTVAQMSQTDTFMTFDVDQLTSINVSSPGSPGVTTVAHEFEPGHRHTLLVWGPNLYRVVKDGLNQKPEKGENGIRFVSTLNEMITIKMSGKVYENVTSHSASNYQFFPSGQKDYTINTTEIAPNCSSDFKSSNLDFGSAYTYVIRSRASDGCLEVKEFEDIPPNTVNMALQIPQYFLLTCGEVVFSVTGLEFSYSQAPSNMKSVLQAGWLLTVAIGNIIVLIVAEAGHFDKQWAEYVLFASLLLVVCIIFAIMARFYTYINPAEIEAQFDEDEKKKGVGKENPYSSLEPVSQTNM
The description is as above. The following applies: 1 mM.
From the text: as §1

In data set [4] the test system is rats. Nature of the data set: Single dose toxicity study in rat. Particulars: single oral dose 700 mg/kg. In kind it is in vivo. As for the experimental part: Toxicity testing required about 5 g of the thiodipeptide, Ala-ΨS-Ser.tfa (trifluoroacetate salt), which was delivered to rats as test subjects.
Single oral dose of 700 mg/kg to 5 males and 5 females on day 1.
Test Substance Formulation: The dose formulation was successfully prepared using physiological saline as the vehicle. The concentration of the test substance was 140 mg/ml, dosed at a volume of 5 ml/kg, resulting in a dose of 700 mg/kg.

Data set [5] in a line: Resistance to hydrolysis. In kind it is in vitro ADME.
For data set [6], the target named is T1, PepT1. The data set is described as follows: Uptake of [3H]-D-Phe-L-Gln in oocytes in competition with test compound (binding to PepT1). As for the experimental part:
Uptake of the radiolabelled dipeptide [^3H]-D-Phe-L-Gln (17.4 Ci/mmole, custom synthesised, Cambridge Research Biochemicals, Stockton-on-Tees, UK) in competition with the compounds to be tested, was performed as previously described (Meredith et al. J. Physiol., 1998, 512, 629-634). Briefly, 5 oocytes were incubated at room temperature in 100 μL of uptake medium (95 mM NaCl, 2 mM KCl, 1 mM CaCl2, 0.42 mM MgCl2, 10 mM Tris/Mes pH 5.5) with tracer (0.4 μM) [^3H]-D-Phe-L-Gln with or without a test compound at the appropriate concentration. After incubation for one hour, the oocytes were washed sequentially five times in 1 mL of ice-cold uptake medium, then lysed individually with 100 μL 2% (w/v) SDS in vials, and liquid scintillation counted.
Quantitative binding data has been produced for a large number of thiodipeptide carriers with attached drug surrogates using the methodology described in Meredith et al., 1998, discussed supra, and is shown in Table 2 below, and in FIG. 7. Each of the thiopeptide carrier molecules shown is in accordance with the present invention, with each compound comprising a serine amino acid side chain group on the second amino acid residue.

Molecules are shown by their SMILES. pKi: −log10 of the molar value. Peptide text beside a SMILES is read from it.

`NCC(=O)N[C@@H](CCC(N)=O)C(=O)O` [Gly-Gln] (H-Gly-Gln-OH): in data set [1] (10 mM, average from 5 experiments), the “cpm remaining in oocytes” value is recorded as 1347 (+/−126) cpm. In data set [1] (at 10 mM), this compound came in with an efflux of 72%. For the same compound, in data set [1] (positive control Gly-Gln, pH 5.5, 90 minutes), the “labelled D-Phe-L-Gln remaining in the oocytes” value is on record as “about 30%”.
For the compound `C[C@H](NC(=S)[C@@H](N)Cc1ccccc1)C(=O)O` [thiopeptide analogue of L-Phe-L-Ala, Phe-ΨS-Ala], the “resistance to peptidases of the small intestine” value in data set [2] is given as “resistant to the peptidases”. Further, in data set [3], the transport rate was 3.09 (+/−0.047) micromol/min/g of whole dry intestine and the “transport rate relative to control dipeptide D-Phe-L-Gln” value was “about 13 times”.
On to `CC(N)C(=S)N[C@@H](CO)C(=O)O.O=C(O)C(F)(F)F` (stereo partly shown) [Ala-ΨS-Ser.tfa], for which, in data set [4] (15 days), the Intercurrent deaths result is “no intercurrent deaths”. Also, the Clinical observations entry in data set [4] (daily for 15 days) was “no treatment related findings”. In data set [4] (day 15), the Bodyweights entry was “All animals had gained weight” and the “Macroscopic findings at scheduled termination” value is recorded as “no macroscopic findings”.
Regarding `CC(N)C(=S)NC(COCc1ccccc1)C(=O)O` [D-Ala-ΨS-Ser(OBn)], in data set [5], the resistance to hydrolysis entry is reported as “more hydrolysis resistant than its corresponding L-isomer”. Also, the “substrate for PepT1” value in data set [6] is “substrate for PepT1”. In addition, in data set [6] (competition with 0.4 μM [3H]-D-Phe-L-Gln, oocytes, pH 5.5, one hour), the pKi is 2.97.

For orientation: pKi means the Ki on a negative log10 scale, so that one unit is a factor of ten. Higher therefore signals a small Ki.
